Data as given in ChEMBL document CHEMBL4507266, “Data for DCP probe BAY-784” (2021).

Columns and labels:
[1] = target: Tyrosine-protein kinase Fyn (Homo sapiens) (UniProt P06241); assay: Inhibition of Protein Tyrosine Kinase, Fyn at 10 µM in the Eurofins-Panlabs enzyme assay (Eurofins_assay_172020); design: substrate with concentration; conditions: Compound concentration 10.0 uM
[2] = target: Neuropeptide Y receptor type 2 (Homo sapiens) (UniProt P49146); assay: Inhibition of Neuropeptide Y Y2 at 10 µM in the Eurofins-Panlabs radioligand binding assay (Eurofins_assay_257110); conditions: Compound concentration 10.0 uM
Cannabinoid receptor 1 = Cannabinoid receptor 1 (Homo sapiens, UniProt P21554)
[3] = target: D(2) dopamine receptor (Homo sapiens) (UniProt P14416); conditions: Compound concentration 10.0 uM
[4] = target: T1, Muscarinic acetylcholine receptor M1 (Homo sapiens) (UniProt P11229); conditions: Compound concentration 10.0 uM
T1 sequence (whole entry): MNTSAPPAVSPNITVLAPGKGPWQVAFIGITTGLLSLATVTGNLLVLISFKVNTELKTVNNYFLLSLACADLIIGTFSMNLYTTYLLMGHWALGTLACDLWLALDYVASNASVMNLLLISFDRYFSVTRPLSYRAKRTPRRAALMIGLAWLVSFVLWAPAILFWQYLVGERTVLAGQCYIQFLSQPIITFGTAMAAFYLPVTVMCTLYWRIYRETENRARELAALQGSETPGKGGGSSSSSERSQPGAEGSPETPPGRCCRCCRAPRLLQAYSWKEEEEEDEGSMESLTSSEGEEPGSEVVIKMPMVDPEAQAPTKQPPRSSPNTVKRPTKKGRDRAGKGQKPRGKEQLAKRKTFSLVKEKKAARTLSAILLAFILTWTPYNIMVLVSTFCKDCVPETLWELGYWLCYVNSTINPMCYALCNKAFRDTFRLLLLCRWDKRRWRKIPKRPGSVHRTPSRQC

[5] = target: Kappa-type opioid receptor (Homo sapiens) (UniProt P41145); conditions: Compound concentration 10.0 uM
[6] = target: Histamine H2 receptor (Homo sapiens) (UniProt P25021); conditions: Compound concentration 10.0 uM
[7] = target: Sodium-dependent dopamine transporter (Homo sapiens) (UniProt Q01959); conditions: Compound concentration 10.0 uM
Caspase-1 (Homo sapiens) = Caspase-1 (Homo sapiens) (UniProt P29466); assay: Inhibition of Peptidase, CASP1 (Caspase 1) at 10 µM in the Eurofins-Panlabs enzyme assay (Eurofins_assay_163000); conditions: Compound concentration 10.0 uM
[8] = target: D(3) dopamine receptor (Homo sapiens) (UniProt P35462); conditions: Compound concentration 10.0 uM
[9] = target: Substance-K receptor (Homo sapiens) (UniProt P21452); assay: Inhibition of Tachykinin NK2 at 10 µM in the Eurofins-Panlabs radioligand binding assay (Eurofins_assay_255600); design: ligand concentration 0.5 nM; conditions: Compound concentration 10.0 uM
[10] = target: GABA-A receptor; anion channel (Rattus norvegicus) (UniProt O09028+P15431+P18506+P18508+P19969+P20236+P23574+P23576+P28471+P28473+P30191+P62813+P63079+P63138+Q91ZM7+Q9ES14); conditions: Compound concentration 10.0 uM
Rattus norvegicus = species on record: Rattus norvegicus; assay: Inhibition of Glycine, Strychnine-Sensitive at 10 µM in the Eurofins-Panlabs radioligand binding assay (Eurofins_assay_239000); conditions: Compound concentration 10.0 uM
Bacteria = assay: Beta-Lactamase Eurofins-Panlabs enzyme assay; design: substrate with concentration; conditions: Compound concentration 10.0 uM
Homo sapiens = species on record: Homo sapiens; assay: Inhibition of Tumor Necrosis Factor (TNF), Non-Selective at 10 µM in the Eurofins-Panlabs radioligand binding assay (Eurofins_assay_286510); conditions: Compound concentration 10.0 uM
[11] = target: Endothelin-1 receptor (Homo sapiens) (UniProt P25101); conditions: Compound concentration 10.0 uM
[12] = target: Insulin receptor (Homo sapiens) (UniProt P06213); conditions: Rattus norvegicus; Compound concentration 10.0 uM
[13] = target: 3-hydroxy-3-methylglutaryl-coenzyme A reductase (Homo sapiens) (UniProt P04035); assay: Inhibition of HMG-CoA Reductase at compound concentration of 10.0 uM in the Eurofins-Panlabs enzyme assay (Eurofins_assay_124010); design: substrate with concentration; conditions: Compound concentration 10.0 uM
[14] = target: Adenosine receptor A2a (Homo sapiens) (UniProt P29274); conditions: Compound concentration 10.0 uM
[15] = target: Epidermal growth factor receptor (Homo sapiens) (UniProt P00533); assay: Protein Tyrosine Kinase, EGF Receptor Eurofins-Panlabs enzyme assay; design: substrate with concentration; conditions: Compound concentration 10.0 uM
[16] = target: T2, Alpha-1A adrenergic receptor (Homo sapiens) (UniProt P35348); conditions: Rattus norvegicus; Compound concentration 10.0 uM
T2 sequence (whole entry): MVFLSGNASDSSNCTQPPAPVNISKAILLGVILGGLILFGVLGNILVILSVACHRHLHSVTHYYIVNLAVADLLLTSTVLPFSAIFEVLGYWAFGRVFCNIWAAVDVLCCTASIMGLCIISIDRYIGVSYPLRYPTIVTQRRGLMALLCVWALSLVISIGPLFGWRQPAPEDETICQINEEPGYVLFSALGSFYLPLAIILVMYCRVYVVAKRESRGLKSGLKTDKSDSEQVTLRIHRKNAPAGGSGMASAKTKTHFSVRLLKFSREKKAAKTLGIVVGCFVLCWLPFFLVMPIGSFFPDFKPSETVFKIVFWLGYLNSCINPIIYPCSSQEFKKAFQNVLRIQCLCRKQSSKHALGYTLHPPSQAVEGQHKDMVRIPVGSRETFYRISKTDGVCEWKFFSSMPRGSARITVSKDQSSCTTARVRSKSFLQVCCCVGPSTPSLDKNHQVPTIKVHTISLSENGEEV

[17] = target: C-X-C chemokine receptor type 2 (Homo sapiens) (UniProt P25025); assay: Inhibition of Chemokine CXCR2 (IL-8RB) at 10 µM in the Eurofins-Panlabs radioligand binding assay (Eurofins_assay_244500); conditions: Compound concentration 10.0 uM
CYP2C9 = CYP2C9 (Homo sapiens, UniProt P11712); assay: CYP450, 2C9 Eurofins-Panlabs enzyme assay; conditions: compound concentration 10 uM
Sequence of CYP2C9 (P11712 whole entry): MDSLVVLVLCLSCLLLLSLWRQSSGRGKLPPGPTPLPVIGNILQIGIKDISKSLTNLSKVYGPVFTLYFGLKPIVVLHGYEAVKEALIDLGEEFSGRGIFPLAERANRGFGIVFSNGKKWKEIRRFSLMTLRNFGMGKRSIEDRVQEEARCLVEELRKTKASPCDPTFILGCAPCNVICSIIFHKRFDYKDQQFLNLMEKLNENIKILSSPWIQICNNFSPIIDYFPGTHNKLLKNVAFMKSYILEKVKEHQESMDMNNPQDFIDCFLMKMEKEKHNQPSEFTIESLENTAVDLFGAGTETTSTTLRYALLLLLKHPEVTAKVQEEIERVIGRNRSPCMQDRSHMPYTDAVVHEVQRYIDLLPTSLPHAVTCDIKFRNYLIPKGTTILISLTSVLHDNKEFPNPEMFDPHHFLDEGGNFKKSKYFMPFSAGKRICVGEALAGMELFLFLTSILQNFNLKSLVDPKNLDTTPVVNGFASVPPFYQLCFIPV

Sequence of Cannabinoid receptor 1 (P21554 whole entry): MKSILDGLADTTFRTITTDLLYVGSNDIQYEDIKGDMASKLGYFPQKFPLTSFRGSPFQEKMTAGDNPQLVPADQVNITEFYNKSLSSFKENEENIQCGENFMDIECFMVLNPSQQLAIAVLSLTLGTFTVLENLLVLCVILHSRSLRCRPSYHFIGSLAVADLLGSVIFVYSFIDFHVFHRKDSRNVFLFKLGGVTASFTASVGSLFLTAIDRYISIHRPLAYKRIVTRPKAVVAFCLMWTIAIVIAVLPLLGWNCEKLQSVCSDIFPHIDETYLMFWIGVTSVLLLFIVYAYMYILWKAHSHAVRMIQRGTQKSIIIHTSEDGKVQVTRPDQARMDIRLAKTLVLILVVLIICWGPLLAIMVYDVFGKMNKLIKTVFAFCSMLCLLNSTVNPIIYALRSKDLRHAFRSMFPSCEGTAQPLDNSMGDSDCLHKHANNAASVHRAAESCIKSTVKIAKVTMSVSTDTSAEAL
Sequence of D(2) dopamine receptor (Homo sapiens) (P14416 whole entry): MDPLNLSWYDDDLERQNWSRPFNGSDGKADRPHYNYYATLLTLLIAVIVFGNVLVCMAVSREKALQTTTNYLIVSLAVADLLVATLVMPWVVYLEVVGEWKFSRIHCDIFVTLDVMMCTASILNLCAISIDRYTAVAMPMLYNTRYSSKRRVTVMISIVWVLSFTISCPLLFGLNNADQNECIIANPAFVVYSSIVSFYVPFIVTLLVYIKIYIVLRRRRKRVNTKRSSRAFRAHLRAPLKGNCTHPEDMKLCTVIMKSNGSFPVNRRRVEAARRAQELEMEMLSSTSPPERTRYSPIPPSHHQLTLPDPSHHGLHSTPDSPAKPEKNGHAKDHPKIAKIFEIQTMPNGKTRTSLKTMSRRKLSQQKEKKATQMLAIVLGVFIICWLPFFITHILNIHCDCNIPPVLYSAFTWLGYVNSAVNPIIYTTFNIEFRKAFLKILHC
Sequence of C-X-C chemokine receptor type 2 (Homo sapiens) (P25025 whole entry): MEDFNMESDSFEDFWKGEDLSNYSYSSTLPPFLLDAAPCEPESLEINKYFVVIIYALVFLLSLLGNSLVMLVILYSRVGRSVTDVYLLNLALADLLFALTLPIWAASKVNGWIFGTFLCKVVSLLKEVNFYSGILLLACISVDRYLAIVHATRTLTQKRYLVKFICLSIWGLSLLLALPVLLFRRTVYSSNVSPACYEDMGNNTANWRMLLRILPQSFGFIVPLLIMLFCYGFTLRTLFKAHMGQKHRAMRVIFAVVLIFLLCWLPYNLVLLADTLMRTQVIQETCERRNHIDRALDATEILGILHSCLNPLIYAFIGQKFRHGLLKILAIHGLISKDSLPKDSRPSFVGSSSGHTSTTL
Sequence of Epidermal growth factor receptor (Homo sapiens) (P00533 whole entry): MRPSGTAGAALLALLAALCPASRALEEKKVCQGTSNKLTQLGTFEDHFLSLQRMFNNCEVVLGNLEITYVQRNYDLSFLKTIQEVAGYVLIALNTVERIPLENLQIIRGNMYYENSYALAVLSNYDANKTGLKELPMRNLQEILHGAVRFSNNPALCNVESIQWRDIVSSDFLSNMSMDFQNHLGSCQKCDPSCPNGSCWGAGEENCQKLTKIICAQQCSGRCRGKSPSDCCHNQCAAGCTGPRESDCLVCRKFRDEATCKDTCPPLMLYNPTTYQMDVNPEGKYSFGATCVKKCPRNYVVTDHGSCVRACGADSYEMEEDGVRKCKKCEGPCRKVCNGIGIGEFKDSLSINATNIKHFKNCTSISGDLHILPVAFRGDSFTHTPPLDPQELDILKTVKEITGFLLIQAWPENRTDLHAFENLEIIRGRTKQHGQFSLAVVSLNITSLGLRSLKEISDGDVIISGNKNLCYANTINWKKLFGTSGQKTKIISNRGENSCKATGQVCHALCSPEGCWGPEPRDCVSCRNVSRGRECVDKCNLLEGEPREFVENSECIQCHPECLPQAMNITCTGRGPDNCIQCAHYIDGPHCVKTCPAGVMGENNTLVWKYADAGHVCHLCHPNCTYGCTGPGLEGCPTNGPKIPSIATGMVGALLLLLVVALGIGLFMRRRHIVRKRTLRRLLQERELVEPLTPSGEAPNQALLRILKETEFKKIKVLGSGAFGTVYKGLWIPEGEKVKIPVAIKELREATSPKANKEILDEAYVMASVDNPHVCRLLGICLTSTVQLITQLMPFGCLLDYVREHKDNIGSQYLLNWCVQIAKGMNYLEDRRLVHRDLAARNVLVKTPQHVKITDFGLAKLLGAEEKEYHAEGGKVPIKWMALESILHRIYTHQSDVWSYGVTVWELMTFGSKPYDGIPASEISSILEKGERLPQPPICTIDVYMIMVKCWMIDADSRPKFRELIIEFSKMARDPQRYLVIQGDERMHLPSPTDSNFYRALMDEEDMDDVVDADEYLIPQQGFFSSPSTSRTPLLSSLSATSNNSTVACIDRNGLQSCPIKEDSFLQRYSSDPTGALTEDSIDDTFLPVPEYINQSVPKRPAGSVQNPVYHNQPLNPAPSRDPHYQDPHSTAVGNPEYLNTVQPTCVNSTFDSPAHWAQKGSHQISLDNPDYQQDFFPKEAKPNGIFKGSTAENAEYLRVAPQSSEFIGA
Sequence of 3-hydroxy-3-methylglutaryl-coenzyme A reductase (Homo sapiens) (P04035 whole entry): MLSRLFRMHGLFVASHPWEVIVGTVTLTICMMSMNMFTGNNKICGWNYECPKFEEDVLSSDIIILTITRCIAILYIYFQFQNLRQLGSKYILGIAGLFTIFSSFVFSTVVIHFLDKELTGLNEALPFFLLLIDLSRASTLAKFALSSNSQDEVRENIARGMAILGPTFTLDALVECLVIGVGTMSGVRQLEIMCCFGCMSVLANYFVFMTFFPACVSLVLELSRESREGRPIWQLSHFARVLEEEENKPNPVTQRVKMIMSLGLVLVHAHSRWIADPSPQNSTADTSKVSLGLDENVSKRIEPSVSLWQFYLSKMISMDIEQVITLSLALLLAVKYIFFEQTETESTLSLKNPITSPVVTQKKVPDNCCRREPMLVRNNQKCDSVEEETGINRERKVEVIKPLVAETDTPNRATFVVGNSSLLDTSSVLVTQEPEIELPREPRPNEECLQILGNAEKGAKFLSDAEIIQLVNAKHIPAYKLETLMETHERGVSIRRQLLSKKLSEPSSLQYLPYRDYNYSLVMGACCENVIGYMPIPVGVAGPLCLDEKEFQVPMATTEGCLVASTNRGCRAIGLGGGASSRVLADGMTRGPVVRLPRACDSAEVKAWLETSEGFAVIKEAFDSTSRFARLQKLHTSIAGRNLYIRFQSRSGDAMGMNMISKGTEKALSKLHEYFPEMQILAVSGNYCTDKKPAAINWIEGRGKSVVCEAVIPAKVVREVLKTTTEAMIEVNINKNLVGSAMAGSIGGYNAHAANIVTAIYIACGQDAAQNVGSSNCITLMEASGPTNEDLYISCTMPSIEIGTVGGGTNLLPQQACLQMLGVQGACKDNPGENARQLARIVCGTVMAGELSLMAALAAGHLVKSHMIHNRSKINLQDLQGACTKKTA
Sequence of Tyrosine-protein kinase Fyn (Homo sapiens) (P06241 2-537 limits assumed): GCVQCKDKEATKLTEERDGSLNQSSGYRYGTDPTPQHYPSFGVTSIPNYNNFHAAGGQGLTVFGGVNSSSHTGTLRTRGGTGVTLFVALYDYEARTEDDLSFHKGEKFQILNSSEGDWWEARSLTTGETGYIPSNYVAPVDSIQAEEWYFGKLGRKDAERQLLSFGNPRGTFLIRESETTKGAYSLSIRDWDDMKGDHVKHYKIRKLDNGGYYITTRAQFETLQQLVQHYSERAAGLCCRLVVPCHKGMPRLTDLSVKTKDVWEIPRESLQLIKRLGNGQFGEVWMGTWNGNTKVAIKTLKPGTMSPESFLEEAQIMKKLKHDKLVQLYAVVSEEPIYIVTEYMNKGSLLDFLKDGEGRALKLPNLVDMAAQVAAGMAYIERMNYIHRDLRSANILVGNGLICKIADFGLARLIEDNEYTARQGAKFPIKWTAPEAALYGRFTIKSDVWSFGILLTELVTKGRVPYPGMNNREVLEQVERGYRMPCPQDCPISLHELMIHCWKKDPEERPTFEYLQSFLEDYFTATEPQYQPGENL
Sequence of Substance-K receptor (Homo sapiens) (P21452 whole entry): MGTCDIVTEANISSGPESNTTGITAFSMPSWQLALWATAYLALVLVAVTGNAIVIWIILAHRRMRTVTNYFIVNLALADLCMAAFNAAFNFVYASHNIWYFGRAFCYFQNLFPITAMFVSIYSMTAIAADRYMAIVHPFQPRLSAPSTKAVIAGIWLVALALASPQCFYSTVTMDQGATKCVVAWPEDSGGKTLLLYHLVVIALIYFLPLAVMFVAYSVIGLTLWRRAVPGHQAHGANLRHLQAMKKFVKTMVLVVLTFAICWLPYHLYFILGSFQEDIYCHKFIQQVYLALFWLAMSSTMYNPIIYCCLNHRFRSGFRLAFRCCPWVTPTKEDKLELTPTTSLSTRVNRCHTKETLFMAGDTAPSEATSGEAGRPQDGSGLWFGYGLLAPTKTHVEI

O=C(NCc1ncc(C(F)(F)F)cc1Cl)c1ccc2c(c1)C1(CCS(=O)(=O)CC1)[C@H](C1CC1)N2S(=O)(=O)c1ccc(F)cc1 [BAY-784]
inhibition [1]: 5%
inhibition [2]: 2%
inhibition (Cannabinoid receptor 1; Compound concentration 3.0 uM): 52%
inhibition (Cannabinoid receptor 1; Compound concentration 10.0 uM): 73%
inhibition [3]: 4%
inhibition [4]: 5%
inhibition [5]: 7%
inhibition [6]: 1%
inhibition [7]: 25%
inhibition (Caspase-1 (Homo sapiens)): 8%
inhibition [8]: 17%
inhibition [9]: 7%
inhibition [10]: -1%
inhibition (Rattus norvegicus): 4%
inhibition (Bacteria): -2%
inhibition (Homo sapiens): 22%
inhibition [11]: 16%
inhibition [12]: -1%
inhibition [13]: 12%
inhibition [14]: 0%
inhibition [15]: -3%
inhibition [16]: 7%
inhibition [17]: 14%
inhibition at 10 µM (CYP2C9): 32% (not active)
